# US20110143960A1, “3D-MODELS FOR HIGH-THROUGHPUT SCREENING DRUG DISCOVERY AND DEVELOPMENT” (priority 2009, published 2011)
# Entries after “also recorded” stand apart in the source; their conditions may differ. Read-outs that look alike come from different tables or passages of the source.
# What was measured:
# [1] = test system: VimPro-Fluc-PMC42-LA cells; type: cell-based; details: VimPro-Fluc-PMC42-LA monolayer, 10 ng/mL EGF, 72 h
# Description: (§1) A 2D-screen was conducted with small molecule antitumor agents, growth factors or antibodies (FIG. 2B). All cells were cultured in 100 mm tissue culture dishes in RPMI-1640 supplemented with 10% FBS and maintained in a 5% CO2 incubator at 37° C. VimPro-Fluc-MDA-MB-231 and VimPro-Fluc-PMC42-LA were seeded at 5,000 cells/well into 96-well white plates and incubated overnight for 16 h. VimPro-Fluc-PMC42-LA and VimPro-Fluc-MDA-MB-231 cells were treated for 72 h. The treatment medium was replaced with 50 μL fresh medium, then 50 μL of One-Glo Luciferase reagent and incubated at room temperature for 10 min. Luminescence was recorded with an integration time of 1 sec/well using a luminescence microplate reader.
# [2] = test system: VimPro-Fluc-MDA-MB-231 cells; type: cell-based; details: VimPro-Fluc-MDA-MB-231 monolayer, 72 h
# Description: as §1
# [3] = test system: VimPro-Fluc-MDA-MB-231 spheroids; assay: Live 3D-spheroid vimentin expression assay (VimPro-Fluc, DMNPE-caged luciferin); type: cell-based; details: read-out: IC50 vimentin expression, dose response
# Description: Uniform single-spheroids of MDA-MB-231 and VimPro-Fluc-MDA-MB-231 breast carcinoma cells were cultured in 96-well flat bottom plates coated with 50 μL of a 1.5% agarose (weight/volume) solution in serum free RPMI-1640 (no phenol red) medium (freshly autoclaved at 121° C. for 15 min). During the coating process the agarose/RPMI-1640 solution was maintained at >60° C. followed by cooling and setting at room temperature for 40 min. Cells were plated at a density of 10,000 cells/well in 50 μL of RPMI-1640 (10% FBS, no phenol red) and centrifuged at 1,000 rpm for 15 min to induce cell aggregation. […]
# VimPro-Fluc-MDA-MB-231 spheroids were cultured in 96-well optical bottom white plates and treated as described above. On day 8, after 72 h treatment with control EMT modulators, live spheroid vimentin expression was measured by adding 10 μL (final 12.5 μM) of DMNPE-caged luciferin to each well and incubating at 37° C., 5% CO2 for 2 h.
# Uniform single spheroids were cultured in 96-well optical bottom white plates as described above and treated on day 5. […] After 72 h, vimentin expression was measured by adding 10 μL (final 12.5 μM) of DMNPE-caged luciferin to each well and incubated for 2 h (37° C., 5% CO2). Luminescence was recorded with an integration time of 1 second/well (FIG. 9A-D).
# MDA-MB-231 spheroids [4] = assay: Modified Boyden chamber cell invasion assay of cells dissociated from spheroids; type: cell-based; details: control modulators, 72 h treatment, 24 h invasion, FIG. 6
# Description: Spheroids were treated as in the primary assay. Following treatment, each sample group was disassociated into single cell suspensions and seeded into invasion chambers followed by a 24 h incubation period. VimPro-Fluc-MDA-MB-231 spheroids were treated with control EMT modulators as described using 15 spheroids per sample group. The spheroids for each sample group were pooled into 1.5 ml, micro tubes and collected by centrifugation at 10,000 rpm for 10 min at room temperature.
# Each sample group was then treated with 200 μL of spheroid dissociation solution (0.25% trypsin-EDTA) and incubated at 37° C. for 30 min. Single cell suspensions of each group in RPMI-1640 medium containing 0.1% BSA were seeded at 35,000 cells/chamber (50 μL) into the top chambers of a 96-well invasion plate (BD Biosciences; Bedford, Mass.) previously coated with 50 μL of […]™ (40 μg/mL protein in RPMI-1640 medium). Chemoattractant (10%
# FBS in RPMI-1640 medium, 150 μL) was added to each bottom chamber and the plate was incubated (37° C., 5% CO2) for 24 h. Following incubation the insert was removed and the medium aspirated from both top and bottom chambers. […] Each side of the membrane insert was washed 2× by adding 200 μL PBS-CMF (Ca/Mg free) to the bottom chamber, replacing the insert and adding 50 μL PBS-CMF to the top chamber. The PBS-CMF was removed and the invading cells were fixed with 200 μL of 4% paraformaldahyde in the bottom chambers at 37° C. for 15 min. The insert was washed 2× with PBS-CMF as described above. The invading cells were subsequently stained with 200 μL of DAPI (3 μg/mL) in PBS-CMF for 30 min at room temperature and washed 4×, as described above, in 15 min intervals. Invading cells were quantified using five random fields per filter insert in triplicate at 20× magnification using a fluorescent microscope equipped with metamorph image analysis and quantification software (Molecular Devices; Downingtown, Pa.).
# [5] = test system: EGF-treated PMC42-LA cells
# Description: (§2) Cell lines were cultured as monolayers in 96-well microplates and treated with U0126, the specific inhibitor of mitogen-activated protein kinase kinase (MEK1).
# MDA-MB-231 cells = test system: MDA-MB-231 cells
# Description: as §2
# [6] = test system: vimentin in MDA-MB-231 spheroids; assay: Immunofluorescent vimentin staining of whole and sectioned spheroids (confocal); type: cell-based; details: whole spheroid, outer surface / peripheral layer; U0126 10 μM 72 h
# Description: Confocal 3D imaging emphasizes a surface edge of MDA-MB-231 spheroids untreated or treated with (10 μM) U0126 for 72 hours.
# Spheroids were fixed with 50 μL of 3.7% formaldehyde for 10 min at room temperature. They were then washed once with PBS and 50 μL of 0.2% Triton X-100 in PBS (v/v) were added for 10 min at room temperature to permeate cells. Next they were blocked with 50 μL of cell culture medium (10% FBS) for 1 h at room temperature. Blocking medium was then aspirated and sphroids were treated with mouse anti-vimentin at 1:100 in TBST containing 20% cell culture medium (v/v) with shaking at 4° C. overnight. They were then washed (3×TBST) and stained with FITC green fluorescent conjugated goat anti-mouse secondary antibody at 1:1,000 and with DAPI (4′,6-diamidino-2-phenylindole) at 1:1,000 in TBST containing 20% cell culture medium (v/v) for 1 h at room temperature and washed with TBST 4×. After fixing with formaldehyde, some spheroids were sectioned using a Leica CM 1950 cryostat (Leica Microsystems; Germany) with thickness of 10 μm. Spheroid sections were washed with PBS and stained as described above. Spheroid sections on slides were covered with mounting medium and cover slips. Imaging of whole spheroids was done with an UltraVIEW® VoX 3D confocal microscope (Perkin Elmer) using a 20× objective. Spheroid sections were imaged using a Nikon D-Eclipse Cl confocal microscope system (Nikon Instruments Inc; Melville, N.Y.).
# Vimentin expression in VimPro-Fluc-MDA-MB-231 spheroids was further assessed by immunofluorescent staining of whole spheroids treated with U0126.
# MDA-MB-231 spheroids [7] = assay: Spheroid viability, APH assay multiplexed after vimentin readout; type: cell-based; details: for spheroid death (control of APH assay): 10% Triton X-100, 2 h prior to APH analysis
# Description: Cell Viability To support the primary assay hit validation, two cell viability assays have been developed: the acid phosphatase assay (APH) and the cell-titer-glow (Promega®). Both assays give robust reproducible results in both 2D and 3D cell culture. We can also multiplex these assays using live VimPro-Fluc stable 3D-spheroids (FIG. 5). On day 8, vimentin expression was measured (luminescence as RLU/s), using a live cell permeable luciferin reagent, followed by multiplexing with the APH assay (OD405). […] Thus, downregulation of VimPro-Fluc activity by the control modulators is not due to spheroid death.
# Uniform single spheroids were cultured in 96-well optical bottom white plates as described above and treated on day 5. To avoid edge effects the outer wells were unused and filled with sterilized water. 15 μL of controls and marine natural products were added to each well at final concentrations described above. After 72 h, vimentin expression was measured by adding 10 μL (final 12.5 μM) of DMNPE-caged luciferin to each well and incubated for 2 h (37° C., 5% CO2). Luminescence was recorded with an integration time of 1 second/well (FIG. 9A-D). Directly following the primary assay measuring vimentin expression, spheroid viability was multiplexed using the APH assay. Hits were confirmed using the cell invasion assay (FIG. 9E).
compound,measurement,setting,value
COc1cc2ncnc(Nc3cccc(Cl)c3)c2cc1OC [AG1478],EGF-induced EMT (vimentin upregulation),[1],significantly inhibited
same,vimentin expression,[2],no statistically significant effect
CNC(=O)c1ccccc1Sc1ccc2c(/C=C/c3ccccn3)n[nH]c2c1 [Axitinib],IC50,"[3]; VimPro-Fluc spheroids, FIG. 8B",0.25 µM
"C[C@@H](Oc1cc(-c2cnn(C3CCNCC3)c2)cnc1N)c1c(Cl)ccc(F)c1Cl [PF2341066, PF-2341066]",inhibition of invasive potential vs untreated spheroids,MDA-MB-231 spheroids [4],about 90%
same,invasive potential of MDA-MB-231 spheroids (in words),MDA-MB-231 spheroids [4],significant inhibition
CO[C@@H]1[C@H](N(C)C(=O)c2ccccc2)C[C@H]2O[C@]1(C)n1c3ccccc3c3c4c(c5c6ccccc6n2c5c31)C(=O)NC4 [PKC412],invasive potential of MDA-MB-231 spheroids (in words),MDA-MB-231 spheroids [4],significant inhibition
N#CC(=C(/N)Sc1ccccc1N)/C(C#N)=C(\N)Sc1ccccc1N [U0126],invasive potential,[5],significantly diminished
same,invasive potential,MDA-MB-231 cells,significantly diminished
same,IC50,[3],2.5 µM
same,EGF-induced EMT (vimentin upregulation),[1],significantly inhibited
same,vimentin expression,[2],significant downregulation of vimentin expression
same,inhibition of invasive potential vs untreated spheroids,MDA-MB-231 spheroids [4],about 90%
same,invasive potential of MDA-MB-231 spheroids (in words),MDA-MB-231 spheroids [4],significant inhibition
same,vimentin protein expression by immunofluorescence,[6],overall vimentin downregulation; also recorded: Significant downregulation of vimentin protein expression; also recorded: repression of Vimentin expression
COc1c(OC)c2c(c(CCN(C)C)c1SC)Sc1c(CCN(C)C)c(SC)c(OC)c(OC)c1S2 [lissoclinotoxin E],spheroid viability vs untreated spheroids on day 5,"MDA-MB-231 spheroids [7]; marine natural product hits, 10 μM, 72 h, APH assay",exception; also recorded: statistically significant decrease in spheroid viability
Triton X-100,spheroid death (control of APH assay),MDA-MB-231 spheroids [7],significantly induces spheroid death
same,spheroid death (control of APH assay),MDA-MB-231 spheroids [7]; listed as Triton-X-100,significantly induced spheroid death
